Assay [1] deals with CDK6/cyclin D1 (Homo sapiens) (UniProt P24385+Q00534). The assay can be described thus: Inhibition of CDK6/cyclin D1 (unknown origin) at 10 nM relative to control. In kind it is protein-complex assay.
Assay [2] has as its target CDK3/Cyclin E (Homo sapiens) (UniProt P24864+Q00526). The assay can be described thus: Inhibition of CDK3/cyclin E1 (unknown origin) at 10 nM relative to control. In kind it is protein-complex assay.
For assay [3], the target named is CDK4/Cyclin D3 (Homo sapiens) (UniProt P11802+P30281). Kind of assay: Inhibition of CDK4/cyclin D3 (unknown origin) at 10 nM relative to control. In kind it is protein-complex assay.
Assay [4] deals with CDK9/cyclin T1 (Homo sapiens) (UniProt O60563+P50750). The assay can be described thus: Inhibition of CDK9/Cyclin T1 (unknown origin) at 10 nM relative to control. In kind it is protein-complex assay.
Assay [5] addresses Cyclin-dependent kinase 4/cyclin D1 (Homo sapiens) (UniProt P11802+P24385). The assay can be described thus: Inhibition of CDK4/cyclin D1 (unknown origin) at 10 nM relative to control. The assay is classed as protein-complex assay.
The test system of assay [6] is NCI-H69. The assay can be described thus: Induction of apoptosis in human NCI-H69 cells assessed as increase in cleaved caspase-3 level incubated for 36 hrs by Western blot analysis. In kind it is functional, cell-based. On the technique in general: In western blotting, separated proteins are transferred to a membrane and probed.
For another assay, the system named is NCI-H446. The assay can be described thus: Antiproliferative activity against human NCI-H446 cells assessed as inhibition of cell growth incubated for 72 hrs by CCK8 assay. In kind it is functional, cell-based. The conditions noted are these: NCI-H446, 72 h. (In general: Tetrazolium assays rely on reduction of a dye to a coloured formazan, in cell work by metabolically active cells.)

Assay [7] addresses Cyclin-dependent kinase 13/Cyclin-K (Homo sapiens) (UniProt Q14004+O75909). The assay can be described thus: Inhibition of CDK13/Cyclin K (unknown origin) at 10 nM relative to control. In kind it is protein-complex assay.
The test system of assay [8] is NCI-H69. Kind of assay: Induction of apoptosis in human NCI-H69 cells assessed as decrease in BCL-2 expression incubated for 36 hrs by Western blot analysis. The assay is classed as functional, cell-based.
The test system of assay [9] is NCI-H69. The assay can be described thus: Antiproliferative activity against human NCI-H69 cells assessed as inhibition of cell growth incubated for 72 hrs by CCK8 assay. The conditions noted are these: NCI-H69, 72 h. In kind it is functional, cell-based.
Assay [10] deals with T1, Cyclin-dependent kinase 5/CDK5 activator 1 (Homo sapiens) (UniProt Q00535+Q15078). Kind of assay: Inhibition of CDK5/p25NCK (unknown origin) at 10 nM relative to control. In kind it is protein-complex assay.
The test system of assay [11] is NCI-H69. The assay can be described thus: Induction of apoptosis in human NCI-H69 cells assessed as increase in p53 level incubated for 36 hrs by Western blot analysis. In kind it is functional, cell-based.
The target in assay [12] is CDK12/Cyclin K (Homo sapiens) (UniProt O75909+Q9NYV4). Kind of assay: Inhibition of CDK12/Cyclin K (unknown origin) at 10 nM relative to control. In kind it is protein-complex assay.
Assay [13] deals with Cyclin-dependent kinase 1/cyclin B1 (Homo sapiens) (UniProt P06493+P14635). Kind of assay: Inhibition of CDK1/cyclin B1 (unknown origin) at 10 nM relative to control. In kind it is protein-complex assay.
In assay [14] the target is CDK6/cyclin D3 (Homo sapiens) (UniProt P30281+Q00534). The assay can be described thus: Inhibition of CDK6/cyclin D3 (unknown origin) at 10 nM relative to control. In kind it is protein-complex assay.
For assay [15], the target named is T1, Cyclin-dependent kinase 5/CDK5 activator 1 (Homo sapiens). The assay can be described thus: Inhibition of CDK5/p35NCK (unknown origin) at 10 nM relative to control. In kind it is protein-complex assay.
Assay [16] deals with NCI-H69. Kind of assay: Induction of apoptosis in human NCI-H69 cells assessed as increase in cleaved PARP level incubated for 36 hrs by Western blot analysis. In kind it is functional, cell-based.
In assay [17] the test system is NCI-H69. Kind of assay: Induction of apoptosis in human NCI-H69 cells assessed as decrease in MCL-1 expression incubated for 36 hrs by Western blot analysis. The assay is classed as functional, cell-based.

The values below come from ChEMBL document CHEMBL6121063, “Identification of a Potent and Selective CDK9 Degrader as a Targeted Therapeutic Option for the Treatment of Small-Cell Lung Cancer” (J Med Chem, 2025).

T1 sequence (Q00535 whole entry): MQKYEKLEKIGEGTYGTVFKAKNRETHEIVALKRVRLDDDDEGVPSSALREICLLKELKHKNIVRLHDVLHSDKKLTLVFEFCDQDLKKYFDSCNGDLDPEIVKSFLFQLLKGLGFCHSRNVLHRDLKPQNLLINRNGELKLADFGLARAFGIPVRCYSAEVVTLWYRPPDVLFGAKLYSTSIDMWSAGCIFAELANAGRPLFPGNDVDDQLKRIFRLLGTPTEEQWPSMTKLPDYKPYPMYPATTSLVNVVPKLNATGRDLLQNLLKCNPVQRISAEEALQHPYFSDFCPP
T1 sequence (Q15078 99-307 partner limits assumed): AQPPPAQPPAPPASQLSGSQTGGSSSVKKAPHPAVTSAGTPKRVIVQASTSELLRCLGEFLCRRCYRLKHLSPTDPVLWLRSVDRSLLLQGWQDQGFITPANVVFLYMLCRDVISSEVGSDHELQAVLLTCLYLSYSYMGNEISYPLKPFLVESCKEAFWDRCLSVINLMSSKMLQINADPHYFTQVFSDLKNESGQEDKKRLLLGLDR
Chain of CDK12/Cyclin K (Homo sapiens) (O75909 whole entry, looked up): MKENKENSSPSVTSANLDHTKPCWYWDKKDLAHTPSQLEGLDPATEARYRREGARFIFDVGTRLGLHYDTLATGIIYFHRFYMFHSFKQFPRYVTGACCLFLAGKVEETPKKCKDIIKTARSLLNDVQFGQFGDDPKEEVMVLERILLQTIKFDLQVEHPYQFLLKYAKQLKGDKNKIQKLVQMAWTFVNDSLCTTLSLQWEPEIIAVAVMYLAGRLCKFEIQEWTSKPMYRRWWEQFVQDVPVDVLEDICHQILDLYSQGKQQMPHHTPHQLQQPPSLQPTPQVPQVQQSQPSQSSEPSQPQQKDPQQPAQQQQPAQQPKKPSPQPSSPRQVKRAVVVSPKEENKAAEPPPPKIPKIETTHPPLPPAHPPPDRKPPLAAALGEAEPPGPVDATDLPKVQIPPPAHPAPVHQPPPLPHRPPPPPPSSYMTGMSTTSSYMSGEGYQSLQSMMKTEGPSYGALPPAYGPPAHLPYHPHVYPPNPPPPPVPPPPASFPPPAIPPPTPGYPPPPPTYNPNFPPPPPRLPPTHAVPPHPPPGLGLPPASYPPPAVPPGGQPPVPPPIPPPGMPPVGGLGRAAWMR
Chain of CDK12/Cyclin K (Homo sapiens) (Q9NYV4 whole entry, looked up): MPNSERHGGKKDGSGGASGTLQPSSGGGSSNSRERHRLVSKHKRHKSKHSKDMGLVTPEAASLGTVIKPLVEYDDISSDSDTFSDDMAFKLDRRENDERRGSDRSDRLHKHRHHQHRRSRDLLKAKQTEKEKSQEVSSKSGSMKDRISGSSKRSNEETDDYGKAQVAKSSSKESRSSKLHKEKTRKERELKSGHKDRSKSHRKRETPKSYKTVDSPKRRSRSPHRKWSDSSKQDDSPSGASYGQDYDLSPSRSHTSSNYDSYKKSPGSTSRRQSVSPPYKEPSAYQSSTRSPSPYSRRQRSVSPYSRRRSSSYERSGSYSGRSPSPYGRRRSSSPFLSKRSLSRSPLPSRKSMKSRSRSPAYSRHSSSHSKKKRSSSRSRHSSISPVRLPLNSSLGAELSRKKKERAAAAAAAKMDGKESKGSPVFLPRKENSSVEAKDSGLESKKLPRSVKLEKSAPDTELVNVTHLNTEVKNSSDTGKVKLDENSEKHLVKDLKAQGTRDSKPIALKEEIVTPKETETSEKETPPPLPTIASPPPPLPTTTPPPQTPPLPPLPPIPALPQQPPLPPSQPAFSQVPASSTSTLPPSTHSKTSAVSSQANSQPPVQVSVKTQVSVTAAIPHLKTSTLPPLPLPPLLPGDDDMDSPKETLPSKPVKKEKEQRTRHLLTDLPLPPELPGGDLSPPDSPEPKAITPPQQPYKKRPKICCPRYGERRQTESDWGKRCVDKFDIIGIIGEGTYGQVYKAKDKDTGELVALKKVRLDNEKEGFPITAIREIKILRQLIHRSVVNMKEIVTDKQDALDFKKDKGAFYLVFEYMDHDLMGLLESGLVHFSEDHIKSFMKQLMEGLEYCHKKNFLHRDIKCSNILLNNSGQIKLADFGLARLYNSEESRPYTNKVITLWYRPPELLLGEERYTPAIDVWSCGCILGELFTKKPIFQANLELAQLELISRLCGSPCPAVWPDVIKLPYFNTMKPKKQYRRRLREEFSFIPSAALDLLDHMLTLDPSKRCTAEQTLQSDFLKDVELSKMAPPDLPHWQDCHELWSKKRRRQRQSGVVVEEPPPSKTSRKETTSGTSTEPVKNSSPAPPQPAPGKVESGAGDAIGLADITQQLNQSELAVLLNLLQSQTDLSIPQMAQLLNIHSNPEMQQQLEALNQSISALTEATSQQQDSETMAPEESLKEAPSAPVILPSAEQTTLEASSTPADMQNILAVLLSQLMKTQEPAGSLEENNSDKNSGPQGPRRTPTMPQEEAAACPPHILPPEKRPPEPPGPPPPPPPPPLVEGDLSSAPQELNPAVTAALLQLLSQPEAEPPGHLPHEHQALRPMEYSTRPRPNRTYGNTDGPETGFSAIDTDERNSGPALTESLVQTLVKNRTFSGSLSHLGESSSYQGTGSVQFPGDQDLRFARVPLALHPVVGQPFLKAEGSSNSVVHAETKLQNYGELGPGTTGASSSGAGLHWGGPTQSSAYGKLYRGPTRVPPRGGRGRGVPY
Chain of Cyclin-dependent kinase 13/Cyclin-K (Homo sapiens) (O75909 whole entry, looked up): as the sequence (O75909 whole entry, looked up) above
Chain of Cyclin-dependent kinase 13/Cyclin-K (Homo sapiens) (Q14004 whole entry, looked up): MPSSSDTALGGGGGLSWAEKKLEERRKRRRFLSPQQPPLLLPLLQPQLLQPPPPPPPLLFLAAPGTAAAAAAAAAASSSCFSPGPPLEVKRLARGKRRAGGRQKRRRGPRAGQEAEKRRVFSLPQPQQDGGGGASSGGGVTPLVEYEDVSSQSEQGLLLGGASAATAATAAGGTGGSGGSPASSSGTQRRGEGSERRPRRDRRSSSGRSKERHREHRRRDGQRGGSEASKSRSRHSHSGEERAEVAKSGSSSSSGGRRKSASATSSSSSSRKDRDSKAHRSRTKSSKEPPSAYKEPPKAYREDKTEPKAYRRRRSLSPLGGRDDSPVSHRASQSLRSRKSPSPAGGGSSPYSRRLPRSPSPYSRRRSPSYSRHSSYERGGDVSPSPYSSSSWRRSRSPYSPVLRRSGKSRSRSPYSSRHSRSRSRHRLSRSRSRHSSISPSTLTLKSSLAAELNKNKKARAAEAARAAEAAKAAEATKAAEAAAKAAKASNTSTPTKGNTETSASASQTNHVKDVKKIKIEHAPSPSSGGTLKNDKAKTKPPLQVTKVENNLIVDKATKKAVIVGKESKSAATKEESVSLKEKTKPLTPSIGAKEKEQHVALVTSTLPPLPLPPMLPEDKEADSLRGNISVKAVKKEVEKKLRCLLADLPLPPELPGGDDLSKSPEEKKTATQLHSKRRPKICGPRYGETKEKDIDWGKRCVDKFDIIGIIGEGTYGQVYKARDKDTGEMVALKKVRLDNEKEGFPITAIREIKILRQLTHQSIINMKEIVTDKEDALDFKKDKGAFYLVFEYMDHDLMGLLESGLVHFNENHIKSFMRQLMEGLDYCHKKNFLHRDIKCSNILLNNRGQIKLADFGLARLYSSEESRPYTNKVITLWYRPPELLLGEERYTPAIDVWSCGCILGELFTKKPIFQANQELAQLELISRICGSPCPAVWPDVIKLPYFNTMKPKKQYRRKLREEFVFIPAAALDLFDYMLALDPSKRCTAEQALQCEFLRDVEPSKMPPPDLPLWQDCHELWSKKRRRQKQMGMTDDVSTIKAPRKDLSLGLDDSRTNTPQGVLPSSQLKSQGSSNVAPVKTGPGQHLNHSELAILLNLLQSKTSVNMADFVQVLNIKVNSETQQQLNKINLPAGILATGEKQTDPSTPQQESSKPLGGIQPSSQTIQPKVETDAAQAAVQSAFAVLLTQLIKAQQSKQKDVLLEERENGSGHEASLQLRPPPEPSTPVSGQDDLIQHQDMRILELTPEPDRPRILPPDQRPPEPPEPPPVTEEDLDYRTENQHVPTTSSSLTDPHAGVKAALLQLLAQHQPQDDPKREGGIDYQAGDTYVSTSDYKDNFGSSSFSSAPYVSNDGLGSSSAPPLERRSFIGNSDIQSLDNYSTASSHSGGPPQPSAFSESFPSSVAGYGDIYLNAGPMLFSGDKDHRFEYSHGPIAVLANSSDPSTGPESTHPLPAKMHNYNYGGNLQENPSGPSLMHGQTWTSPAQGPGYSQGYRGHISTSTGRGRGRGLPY
Chain of CDK3/Cyclin E (Homo sapiens) (P24864 whole entry, looked up): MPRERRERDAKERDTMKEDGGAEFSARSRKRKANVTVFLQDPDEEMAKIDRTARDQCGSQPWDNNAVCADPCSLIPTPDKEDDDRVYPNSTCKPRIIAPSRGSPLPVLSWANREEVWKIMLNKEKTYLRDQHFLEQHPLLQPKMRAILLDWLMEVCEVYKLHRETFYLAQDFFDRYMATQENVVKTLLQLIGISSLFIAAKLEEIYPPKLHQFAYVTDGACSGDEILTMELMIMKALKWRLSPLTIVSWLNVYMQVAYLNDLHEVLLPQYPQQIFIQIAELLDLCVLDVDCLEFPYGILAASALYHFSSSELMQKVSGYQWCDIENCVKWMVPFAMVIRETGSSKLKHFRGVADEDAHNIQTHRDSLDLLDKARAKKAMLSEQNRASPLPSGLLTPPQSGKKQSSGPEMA
Chain of CDK3/Cyclin E (Homo sapiens) (Q00526 whole entry, looked up): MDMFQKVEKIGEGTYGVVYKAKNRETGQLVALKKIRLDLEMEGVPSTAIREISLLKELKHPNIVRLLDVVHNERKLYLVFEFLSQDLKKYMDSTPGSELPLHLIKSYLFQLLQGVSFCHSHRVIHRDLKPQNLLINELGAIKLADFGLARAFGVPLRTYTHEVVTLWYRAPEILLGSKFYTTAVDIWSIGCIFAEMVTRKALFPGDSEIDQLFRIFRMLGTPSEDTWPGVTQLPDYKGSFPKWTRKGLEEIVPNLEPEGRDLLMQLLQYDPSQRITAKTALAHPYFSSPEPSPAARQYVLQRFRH

Broadly, the inhibition is the share of the control response that was lost under treatment. Higher therefore signals a response far below the control. The IC50 is the point on the concentration scale where inhibition reaches its midpoint. On to `O=C(NC1CCNCC1)c1n[nH]cc1NC(=O)c1c(Cl)cccc1Cl` [AT-7519], for which the inhibition came to 34% in assay [1]; 16% in assay [2]; 47% in assay [3]; 79% in assay [4]; 36% in [5]; 36% in assay [7]. The inhibition in assay [10] is 26%; in assay [12] it was 29%; in [13] it was 31%; in assay [14], 20%; in assay [15], 20%. For the same molecule, the Activity result in the assay on NCI-H69 [6], in the assay with NCI-H69 [8], with NCI-H69 [11], in the assay with NCI-H69 [16] and in the assay on NCI-H69 [17] was “Dose-dependent-effect” each time. The IC50 came out at 173 nM with NCI-H446 and 186 nM with NCI-H69 [9].
